Each structure is given as a SMILES string. Read-outs that look alike come from different tables or passages of the source.

Data set [1] has as its system KPC mouse model that rapidly develops PDAC. Conditions: cited from earlier work; for tumour progression / tumour size: 12-week old KPC mice, 7 day-treated; for murine lethality / survival: treatment started at 8 weeks of age.
Data set [2] relates to primary patient-derived PDAC cells. The settings on record: mouse, in vivo; cited from earlier work.
A further data set has as its system KPC pancreatic tumour. Conditions: cited from earlier work.
Data set [3] deals with BxPC-3 cancer cells xenografts. The settings on record: given after establishment of xenografts; cited from earlier work.
The subject of data set [4] is gemcitabine-resistant metastatic pancreatic cancer. Conditions: gemcitabine-resistant metastatic pancreatic cancer patients, cited from earlier work.
For data set [5], the system named is serum-induced phosphopeptides in Capan-1 cells. In words: SILAC phosphoproteomics of Capan-1 cells under PI3K inhibition. The data set is classed as cell-based, human. On the procedure:
Light amino acid-labelled and heavy amino acid-labelled Capan-1 cells (respectively called thereafter “light” and “heavy” cells) were washed twice with phosphate buffer saline (PBS; SIGMA; D8537), trypsined (GE Healthcare; L11-002) and plated at a concentration of 2.5.10^6 cells in a 14.4 cm-diameter dish (Dutscher, 055063). After 48 h, cells were serum-starved during 16 h, over-night. Light and heavy cells were pre-treated respectively with inhibitors or their accordingly diluted vehicule (DMSO) during 1 h, then stimulated or not for 10 min or 24 h with 2% dialysed FBS. After 10 min and 24 h of FBS stimulation, heavy cells and light cells were maintained on ice, washed three times with cold PBS and lysed.
Cells were lysed on the plate with 2 mL of lysis buffer (Tris-HCl 100 mM-pH 7.8 (Sigma, T1503), SDS 1% (Sigma, L3771), EDTA 5 mM-pH7.8 (Euromedex, EU-0007-B), proteases and phosphatases inhibitors (Sigma) containing 1× cOmplete Roche proteases inhibitors cocktail (SIGMA, 04693132001), NaF 10 mM (Sigma, S1504), NaPPi 10 mM (Sigma, S6422) and Na3VO4 10 mM (Sigma, 450243)) during 30 min at 4° C. in dark. Cells were scraped, harvested and incubated 20 min at 57° C. To eliminate DNA-dependent viscosity, samples were sonicated (amplitude 40%, pulse 1 sec, interval 1 sec during 60 sec). Three other lysis buffers were also tested (Buffer 1: NH4HCO3 100 mM pH7.8, Urea 8M; Buffer 2: Tris-HCl 100 mM pH7.8, Urea 8M; Buffer 3/RIPA: Tris-HCl50 mM, NaCl 150 mM, Nonidet P-40 1% pH 7.8, SDS 0.1% (w/v)); the chosen buffer allowed the better extraction of phospho-tyrosine proteins as assessed by Western blotting with anti-pY (p-Tyr100) antibody (Cell Signaling Technology; 8954S) as compared to in gel 1-DE profile. Cell lysates were then cleared from insoluble fraction by centrifugation at 10,000×g for 15 min at 25° C., and protein concentration was measured by 2-D Quant kit (GE Healthcare, 80-6483-56). For each biological replicate, light and heavy lysates were mixed at a 1:1 ratio for a total amount of 6 mg.
Protein samples were reduced with 100 mM DTT (Sigma, D9163) for 35 min at 57° C. and then handled according to the FASP (Filter Aided Sample Preparation) digestion protocol using Amicon Ultra-15 Centrifugal Filter device (10 kDa cut-off, MILLIPORE, UFC901096). The 1st step consisted in the replacement of SDS by urea, then a dilution with UA buffer (Tris-HCl100 mM-pH 8.5, Urea 8M (Sigma, U5128)) and an alkylation with CAA solution (Tris-HCl 100 mM pH 8.5, Urea 8M, Chloroacetamide 50 mM (Sigma, CO267)). For optimization of trypsin efficiency, urea concentration was decreased at 200 mM with Ammonium Bicarbonate buffer (NH4HCO3 0.05M (SIGMA, 09830) and 10 mM phosphatase inhibitors as previously used in lysis buffer). In a 2nd step, Trypsin (Promega, V5117) digestion was performed at 1:50 (w/w) trypsin:protein ratio overnight at 37° C. on the Amicon Ultra-15 Centrifugal Filter. Tryptic peptides were acidified with 1% trifluoroacetic acid (TFA—Sigma, T6508), cleared at 5,000 rpm for 15 minutes at 15° C., and desalted using C18 Sep-Pak plus cartridges (Waters, WAT043395, 500 mg sorbent). Resin was conditioned with 15 mL in 80% Acetonitrile (ACN—Sigma, 34888) then equilibrated with 15 mL in 0.1% TFA. After the loading step, sample was washed with 15 mL in 0.1% TFA, and the elution was performed with 4 mL in 80% ACN, 0.1% TFA). Eluted peptides were lyophilized with a speed-vacuum over night.
Protocol for the enrichment with TiO2 beads is based on Larsen et al., [45] and Jensen et al.. […]

Data set [6] deals with Panc1 cells and human primary Akt2-amplified pancreatic tumour cell. The settings on record: cited from earlier work.
The subject of data set [7] is AZD6244-resistant tumours. The settings on record: added to AZD6244; cited from earlier work.
The next data set deals with pAkt. The experiment in a line: Western blot of Akt phosphorylation in serum-starved, inhibitor-pretreated, stimulated Capan-1 cells. In kind it is cell-based, human. Conditions: for pS473 and pT308Akt levels: Capan-1, after 10 min stimulation with serum. On the procedure:
Pancreatic cancer cell were cultured consistent conditions. Eight hours after plating of cells, they were serum-starved during 16 h, over-night. Cells were pre-treated with inhibitors or their accordingly diluted vehicle (DMSO) during 1 h, then stimulated or not for 10 min or 24 h with 2% FBS, for 10 min with […] EGF, 100 nM Insulin, 50 ng/ml IGF-1, 1 μM LPA, 30 ng/ml PDGF, 200 nM S1P, 1× amino acids or 2 g/l glucose.
Cells were harvested on ice, washed twice with cold PBS, collected, and frozen at −80° C.
(In general: In western blotting, separated proteins are transferred to a membrane and probed.)

The next data set concerns pancreatic cancer. Conditions: standard of line chemotherapy; cited from earlier work.

On to `Nc1cc(C(F)(F)F)c(-c2cc(N3CCOCC3)nc(N3CCOCC3)n2)cn1` [BKM120], for which, in data set [1], the “tumour progression / tumour size” value is “progressive disease” and the “murine lethality / survival” value is “nearly no effect”.
For `CS(=O)(=O)N1CCN(Cc2cc3nc(-c4cccc5[nH]ncc45)nc(N4CCOCC4)c3s2)CC1` [GDC-0941], in [2], the “response of orthotopic patient-derived PDAC” value was “responded the same way”. In the data set on KPC pancreatic tumour (14 days after established tumours detection), the disease status entry is listed as “stable disease”. Besides, the pancreatic tumour growth result in the data set with KPC pancreatic tumour (KPC mice, 14 days) is given as “efficiently prevent”. Also, the tumour volumes entry in [3] is listed as “did not impair tumour volumes”.
As to `CO[C@H]1C[C@@H]2CC[C@@H](C)[C@@](O)(O2)C(=O)C(=O)N2CCCC[C@H]2C(=O)O[C@H]([C@H](C)C[C@@H]2CC[C@@H](OCCO)[C@H](OC)C2)CC(=O)[C@H](C)/C=C(\C)[C@@H](O)[C@@H](OC)C(=O)[C@H](C)C[C@H](C)/C=C/C=C/C=C/1C` [RAD001], in [4], the “clinical / therapeutic activity” value was “only a minimal clinical action” and the tolerability entry is on record as “well tolerated”. For the same compound, in [4] (listed as Everolimus), the “clinical / therapeutic activity” value is “failed to demonstrate the therapeutic activity”.
Consider `CO[C@H]1C[C@@H]2CC[C@@H](C)[C@@](O)(O2)C(=O)C(=O)N2CCCC[C@H]2C(=O)O[C@H]([C@H](C)C[C@@H]2CC[C@@H](O)[C@H](OC)C2)CC(=O)[C@H](C)/C=C(\C)[C@@H](O)[C@@H](OC)C(=O)[C@H](C)C[C@H](C)/C=C/C=C/C=C/1C` [Sirolimus], for which the tolerability entry in [4] is “well tolerated”.
Consider `O=c1cc(N2CCOCC2)oc2c(-c3ccccc3)cccc12` [LY-294002], for which the “number of serum-induced phosphopeptides changed” value in data set [5] (Capan-1, 10 min) amounted to 427; in data set [5] (Capan-1, 24 h), 258.
In the case of `Cn1c(=O)n(-c2ccc(C(C)(C)C#N)cc2)c2c3cc(-c4cnc5ccccc5c4)ccc3ncc21` [NVP-BEZ235], in data set [6], the “combination effect with panobinostat” value was “additive effect” and the tumour cell growth result is given as “reduced”. For the same compound, the “prevention of resistance to AZD6244” value in data set [7] is “able to prevent this process”.
For `Cc1nc(NC(=O)N2CCC[C@H]2C(N)=O)sc1-c1csc(C(C)(C)C)n1` [A66], the “pS473 and pT308Akt levels” value in the data set on pAkt is “significantly inhibited”. For the same compound, the “RTK-driven (EGF) short-term phosphorylation of Akt” value in the data set on pAkt (EGF stimulation) is “inhibited”. The “re-activation of pAkt upon long-term PI3K inhibition” value with pAkt (serum stimulation, time course up to 48 h) is “prevents this re-activation of pAkt”. Moreover, the “number of serum-induced phosphopeptides changed” value in [5] (Capan-1, 10 min) was found to be 449; in data set [5] (Capan-1, 24 h) it was 404.
For the compound `O=C1NC(=O)/C(=C/c2ccc(-c3ccc(F)cc3O)o2)S1` [AS-252424], the “pS473 and pT308Akt levels” value in the data set with pAkt was “significantly inhibited”. For the same compound, the “GPCR-driven (LPA) short-term phosphorylation of Akt” value in the data set with pAkt (LPA stimulation) is “inhibited”. Also, the “number of serum-induced phosphopeptides changed” value in [5] (Capan-1, 10 min) is on record as 504; in data set [5] (Capan-1, 24 h), 404.
In the case of `Cn1cnc2c(F)c(Nc3ccc(Br)cc3Cl)c(C(=O)NOCCO)cc21` [AZD6244], in data set [1], the “tumour progression / tumour size” value is given as “progressive disease” and the “murine lethality / survival” value is “nearly no effect”.
Regarding `Cc1cc(C(C)Nc2ccccc2)c2nc(N3CCOCC3)cc(=O)n2c1` (stereo not shown) [TGX-221], the “pS473 and pT308Akt levels” value in the data set with pAkt is “significantly inhibited”. The “number of serum-induced phosphopeptides changed” value in data set [5] (Capan-1, 10 min) amounted to 436; in data set [5] (Capan-1, 24 h), 437.
`CO[C@H]1C[C@@H]2CC[C@@H](C)[C@@](O)(O2)C(=O)C(=O)N2CCCC[C@H]2C(=O)O[C@H]([C@H](C)C[C@@H]2CC[C@@H](OC(=O)C(C)(CO)CO)[C@H](OC)C2)CC(=O)[C@H](C)/C=C(\C)[C@@H](O)[C@@H](OC)C(=O)[C@H](C)C[C@H](C)/C=C/C=C/C=C/1C` [Temsirolimus]: the “clinical / therapeutic activity” value in data set [4] is “failed to demonstrate the therapeutic activity”.
In the case of `Nc1ccn([C@@H]2O[C@H](CO)[C@@H](O)C2(F)F)c(=O)n1` [gemcitabine], the “increase of patient survival” value in the data set on pancreatic cancer is on record as “only a few weeks”.

These data come from patent US11351156B2, “Combination treatment of pancreatic cancer” (INSERM (Institut National de la Santé et de la Recherche …, priority 2017, dated 2022).
